The results in this text go back to patent US20240199647A1, “ANTI-VIRAL COMPOUNDS” (Aligos Therapeutics, Inc., priority 2022, published 2024).

Read-outs that look alike come from different tables or passages of the source.

For data set [1], the system named is SARS-CoV-2 B.1.1.7 lineage. The data set is described as follows: microbe, parasite or virus in culture. The data set is classed as cell-based. Particulars: Severe acute respiratory syndrome coronavirus 2, Table C, SARS-CoV-2 B.1.1.7 in A549-dual_ACE2_TMPRSS2 cells, read-out: A549-dual_ACE2_TMPRSS2 (EC50).
Data set [2] has as its target SARS-Cov-2 3CLpro (Severe acute respiratory syndrome coronavirus 2, UniProt P0DTD1). The data set is described as follows: biochemical. To be noted: Table A, class symbols, read-out: SARS-Cov-2 (IC50).
Data set [3] is described as follows: in vitro. To be noted: human.
In data set [4] the test system is human beta-coronavirus OC43. The data set is described as follows: OC43 Coronavirus Assay in HeLa cells (antiviral, cytopathic effect, cell-titer-glo). The data set is classed as cell-based. Particulars: Betacoronavirus 1, OC43, HeLa, Table B; OC43 coronavirus in HeLa cells, cells given as a bound; read-out: EC50.

Broadly, the EC50 is the concentration needed to bring the measured effect to its halfway point. As usually defined, the IC50 is the concentration that gives 50% inhibition. For `[2H]C([2H])([2H])N(C(=O)[C@H](C)NC(=O)C(F)(F)F)[C@@H](CC(C)C)C(=O)N1C[C@@]2(C[C@H]1C#N)Oc1cc(F)cc(F)c1NC2=O` [Compound 109], the EC50 in data set [1] (class symbols) was in the range of 100 to 1000 nM. For the same molecule, the half-inhibitory concentration (IC50) in data set [2] is < 20 nM. In addition, in data set [3], the CC50 is > 1000 nM.
`COc1cccc2[nH]c(C(=O)N(C)[C@@H](CC3CC3)C(=O)N3C[C@@]4(C[C@H]3C#N)Oc3cc(F)cc(F)c3NC4=O)cc12` [Compound 134]: the EC50 in data set [1] (cells given as a bound) was > 1000 nM; in data set [4], > 10 µM. Also, in data set [2], the half-inhibitory concentration (IC50) was < 20 nM. Further, the CC50 in data set [3] is > 1000 nM.
As to `CN(C(=O)[C@@H](CC1CCCCC1)NC(=O)C(F)(F)F)[C@@H](CC1CC1)C(=O)N1C[C@@]2(C[C@H]1C#N)Oc1cccnc1NC2=O` [Compound 145], the EC50 in data set [1] (class symbols) is < 100 nM. Besides, the IC50 in data set [2] is < 20 nM. In data set [3], the CC50 was > 1000 nM.
Regarding `CN(C(=O)[C@@H](Cc1ccncc1)NC(=O)C(F)(F)F)[C@@H](CC1CC1)C(=O)N1C[C@@]2(C[C@H]1C#N)Oc1cccnc1NC2=O` [Compound 148], in data set [1] (cells given as a bound), the 50% effective concentration (EC50) is > 1000 nM. Further, in data set [2], the 50% inhibitory concentration (IC50) was < 20 nM. Also, the CC50 in data set [3] is > 1000 nM.
Consider `CN(C(=O)[C@@H](Cc1cccnc1)NC(=O)C(F)(F)F)[C@@H](CC1CC1)C(=O)N1C[C@@]2(C[C@H]1C#N)Oc1cccnc1NC2=O` [Compound 151], for which the EC50 in data set [1] (class symbols) was 100 to 1000 nM. Also, the IC50 in data set [2] was < 20 nM. The CC50 in data set [3] was > 1000 nM.
The corresponding values for `COc1cccc(C[C@@H](NC(=O)C(F)(F)F)C(=O)N(C)[C@@H](CC2CC2)C(=O)N2C[C@@]3(C[C@H]2C#N)Oc2cccnc2NC3=O)c1` [Compound 152] are < 100 nM, < 20 nM and > 1000 nM.
The corresponding values for `CN(C(=O)[C@@H]1CC[C@@H](c2ccccc2)N1C)[C@@H](CC1CC1)C(=O)N1C[C@@]2(C[C@H]1C#N)Oc1cc(F)cc(F)c1NC2=O` [Compound 153] are 100 to 1000 nM, 20 to 200 nM and > 1000 nM.
The corresponding values for `CN(C(=O)[C@H](CC1CC1)NC(=O)c1ccc(F)cc1)[C@@H](CC1CC1)C(=O)N1C[C@@]2(C[C@H]1C#N)Oc1ccccc1CNC2=O` [Compound 161] are < 100 nM, < 20 nM and > 1000 nM.
In the case of `CN(C(=O)[C@H](CC1CC1)NC(=O)C(F)(F)C(F)(F)F)[C@@H](CC1CC1)C(=O)N1C[C@@]2(C[C@H]1C#N)Oc1ccccc1CNC2=O` [Compound 162], in data set [1] (class symbols), the concentration giving a half-maximal response (EC50) is < 100 nM. Further, in data set [2], the IC50 is < 20 nM. In addition, the CC50 in data set [3] is > 1000 nM.
Regarding `C[C@H](NC(=O)C(F)(F)F)C(=O)N[C@@H](CC1CC1)C(=O)N1C[C@@]2(C[C@H]1C#N)Oc1cccnc1NC2=O` [Compound 180], in data set [1] (cells given as a bound), the half-maximal effective concentration (EC50) is > 1000 nM. Further, the half-maximal inhibitory concentration (IC50) in data set [2] was 200 to 2000 nM. The CC50 in data set [3] is > 1000 nM.
As for `CN(C(=O)c1nnc(-c2ccccc2)[nH]1)[C@@H](CC1CC1)C(=O)N1C[C@@]2(C[C@H]1C#N)Oc1cccnc1NC2=O` [Compound 210], the EC50 in data set [1] (cells given as a bound) is > 1000 nM. Further, the 50% inhibitory concentration (IC50) in data set [2] was 200 to 2000 nM. Further, in data set [3], the CC50 was > 1000 nM.
Regarding `CN(C(=O)c1cnc(-c2ccccc2)[nH]1)[C@@H](CC1CC1)C(=O)N1C[C@@]2(C[C@H]1C#N)Oc1cccnc1NC2=O` [Compound 211], in data set [1] (class symbols), the concentration for a half-maximal effect (EC50) is 100 to 1000 nM. For the same molecule, the IC50 in data set [2] is 20 to 200 nM. For the same molecule, the CC50 in data set [3] was > 1000 nM.
The corresponding values for `C[C@H](NC(=O)C1(C)CCC1)C(=O)N(C)[C@@H](CC1CC1)C(=O)N1C[C@@]2(C[C@H]1C#N)Oc1cccnc1NC2=O` [Compound 212] are 100 to 1000 nM, < 20 nM and > 1000 nM.
The corresponding values for `C[C@H](NC(=O)C12CC(C1)C2)C(=O)N(C)[C@@H](CC1CC1)C(=O)N1C[C@@]2(C[C@H]1C#N)Oc1cccnc1NC2=O` [Compound 216] are 100 to 1000 nM, < 20 nM and > 1000 nM.
For the molecule `CN(C(=O)[C@@H](NC(=O)C(F)(F)F)C12CC(C1)C2)[C@@H](CC1CC1)C(=O)N1C[C@@]2(C[C@H]1C#N)Oc1cccnc1NC2=O` [Compound 217], the EC50 in data set [1] (class symbols) fell in the range of 100 to 1000 nM. The concentration for half-maximal inhibition (IC50) in data set [2] was < 20 nM. Besides, in data set [3], the CC50 is > 1000 nM.
The corresponding values for `CN(C(=O)[C@@H](NC(=O)C(F)(F)F)C1CCCC1)[C@@H](CC1CC1)C(=O)N1C[C@@]2(C[C@H]1C#N)Oc1cccnc1NC2=O` [Compound 218] are < 100 nM, < 20 nM and > 1000 nM.
The corresponding values for `CC(C)C[C@@H](C(=O)N1CC2(C[C@H]1C#N)C(=O)Nc1ccnn12)N(C)C(=O)[C@H](C)NC(=O)C(F)(F)F` (stereo partly drawn) [Example 7, (2S)—N-[(2S)-1-[(5'S)-5′-cyano-2-oxo-1H-spiro[pyrazolo[1,5-a]imidazole-3,3′-pyrrolidin]-1′-yl]-4-methyl-1-oxopentan-2-yl]-N-methyl-2-(2,2,2-trifluoroacetamido)propanamide] are 1000 to 10000 nM, 20 to 200 nM and > 1000 nM.
The corresponding values for `CC(C)C[C@@H](C(=O)N1C[C@]2(CC(C(C)C)NC2=O)C[C@H]1C#N)N(C)C(=O)[C@H](C)NC(=O)C(F)(F)F` (stereo partly shown) [Example 38] are 100 to 1000 nM, < 20 nM and > 1000 nM.
As to `CN(C(=O)[C@H](CC1CC1)NC(=O)C(F)(F)F)[C@@H](CC1CC1)C(=O)N1C[C@@]2(C[C@H]1C#N)Sc1ccccc1NC2=O` [Example 39, (S)—N—((S)-1-((2R,5'S)-5′-cyano-3-oxo-3,4-dihydrospiro[benzo[b][1,4]thiazine-2,3′-pyrrolidin]-1′-yl)-3-cyclopropyl-1-oxopropan-2-yl)-3-cyclopropyl-N-methyl-2-(2,2,2-trifluoroacetamido)propanamide], the 50% effective concentration (EC50) in data set [1] (class symbols) was < 100 nM. In data set [2], the 50% inhibitory concentration (IC50) was < 20 nM. For the same molecule, the CC50 in data set [3] is > 1000 nM.
Turning to `CC(C)C[C@@H](C(=O)N1CC2(C[C@H]1C#N)Cn1nccc1NC2=O)N(C)C(=O)[C@H](C)NC(=O)C(F)(F)F` (stereo partly drawn) [Example 40, (2S)—N-((2S)-1-((5'S)-5′-cyano-5-oxo-4,5-dihydro-7H-spiro[pyrazolo[1,5-a]pyrimidine-6,3′-pyrrolidin]-1′-yl)-4-methyl-1-oxopentan-2-yl)-N-methyl-2-(2,2,2-trifluoroacetamido)propanamide], the EC50 in data set [1] (cells given as a bound) was > 1000 nM. Besides, the concentration for half-maximal inhibition (IC50) in data set [2] lay within 200 to 2000 nM. Moreover, the CC50 in data set [3] was > 1000 nM.
`CC(C)C[C@@H](C(=O)N1CC2(C[C@H]1C#N)Cn1nc(Br)cc1NC2=O)N(C)C(=O)[C@H](C)NC(=O)C(F)(F)F` (stereo partly drawn) [Example 41, (2S)—N-((2S)-1-((5'S)-2-bromo-5′-cyano-5-oxo-4,5-dihydro-7H-spiro[pyrazolo[1,5-a]pyrimidine-6,3′-pyrrolidin]-1′-yl)-4-methyl-1-oxopentan-2-yl)-N-methyl-2-(2,2,2-trifluoroacetamido)propanamide]: the EC50 in data set [1] (cells given as a bound) is > 1000 nM. Besides, the IC50 in data set [2] was 200 to 2000 nM. The CC50 in data set [3] was > 1000 nM.
